From US8314215B2, “Mild chemically cleavable linker system” (The Board of Trustees of the Leland Stanford Junior …, priority 2006, dated 2012)

Tests used:
carbonmonoxy hemoglobin = assay: LC/MS/MS identification of proteins from mouse liver extracts labeled with MTS-I-49; format: biochemical
albumin 1 = target: T1, albumin 1 (Mus musculus, UniProt P07724); assay: as above; format: biochemical
T1 construct: from tissue; host or cells: mouse liver extract

[1] = system: glutathione-S-transferase; assay: as above; format: biochemical
[2] = Background peptides, chemical elution versus on-bead digestion; parameters: species or system mouse; details: chemical elution compared with on-bead digestion
Experimental: After enrichment on immobilized avidin, each of the three labeled proteomes (FIG. 5b) was divided into two aliquots. One was prepared for LC-MS/MS analysis by “on bead” digestion, while the other was chemically eluted and digested “in solution.” Proteins identified in each tissue lysate are listed with their accession number and theoretical molecular weight (MW). To compare both approaches, the number of identified peptides and percentage of amino acid sequence coverage is listed for each protein.
Carboxylesterase 4 has not been characterized on a functional level and has never been confirmed to be catalytically active (Rawlings, N. D., Morton, F. R., and Barrett, A. J. (2006) MEROPS: the peptidase database. Nucleic Acids Res 34, D270-272.). […] Overall the level of background peptides was decreased by over 90%, when chemical elution was used for the sample preparation (as shown in the above Table). Although the number of carboxylesterase peptides identified was reduced compared to the on-bead sample we could still make a confident identification with nearly 40% coverage of peptide sequence.

[3] = chemically eluted, digested in solution

T1 sequence (P07724 25-608): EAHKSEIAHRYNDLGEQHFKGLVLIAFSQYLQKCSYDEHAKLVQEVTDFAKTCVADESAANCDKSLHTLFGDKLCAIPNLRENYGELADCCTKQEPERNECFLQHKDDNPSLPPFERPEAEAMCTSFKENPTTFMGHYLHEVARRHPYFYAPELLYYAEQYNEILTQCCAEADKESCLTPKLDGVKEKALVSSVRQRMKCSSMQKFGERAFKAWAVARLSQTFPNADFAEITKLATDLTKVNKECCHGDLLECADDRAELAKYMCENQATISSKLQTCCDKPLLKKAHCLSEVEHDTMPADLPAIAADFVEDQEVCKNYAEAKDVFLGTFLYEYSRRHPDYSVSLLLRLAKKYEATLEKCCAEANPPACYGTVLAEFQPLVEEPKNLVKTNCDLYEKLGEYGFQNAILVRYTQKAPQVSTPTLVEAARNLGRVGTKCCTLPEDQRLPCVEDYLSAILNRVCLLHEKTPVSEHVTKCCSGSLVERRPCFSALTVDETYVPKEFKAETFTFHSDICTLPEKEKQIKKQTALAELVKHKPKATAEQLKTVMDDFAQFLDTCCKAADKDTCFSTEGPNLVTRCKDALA

C[C@H](NC(=O)c1ccc(N=Nc2cc(CCNC(=O)CCCC[C@@H]3SC[C@@H]4NC(=O)N[C@@H]43)ccc2O)cc1)C(=O)N[C@@H](C)C(=O)NC(Cc1ccccc1)P(=O)(Oc1ccccc1)Oc1ccccc1 (some centres unmarked) [MTS-I-49]
Chemical Cleavage, number of identified peptides (carbonmonoxy hemoglobin; [3]): 0
On Bead Digestion, amino acid sequence coverage (carbonmonoxy hemoglobin; on bead digestion): 68%
On Bead Digestion, number of identified peptides (carbonmonoxy hemoglobin; on bead digestion): 7
Chemical Cleavage, number of identified peptides (albumin 1; [3]): 0
On Bead Digestion, amino acid sequence coverage (albumin 1; on bead digestion): 6%
On Bead Digestion, number of identified peptides (albumin 1; on bead digestion): 2
Chemical Cleavage, amino acid sequence coverage [1, 3]: 12%
Chemical Cleavage, number of identified peptides [1, 3]: 2
On Bead Digestion, amino acid sequence coverage ([1]; on bead digestion): 44%
On Bead Digestion, number of identified peptides ([1]; on bead digestion): 8
decrease of the level of background peptides [2]: over 90%
